In patent publication US7923425B2, “Low-foaming, acidic low-temperature cleaner and process for cleaning surfaces” (Henkel AG & Co. KGaA, priority 2006, dated 2011):
Where “and” joins values, the source holds several entries; their conditions need not be identical. Equal entries are not always repeated.

Tests used:
[1] = Cleaning test on soiled aluminum panels, corn oil soil; settings: 0.05% alone in water, no matrix, 120° F., 90 seconds
Procedure: (§1) A series of commercially available cleaners as well as certain surfactants and related compounds in water, alone, without a builder matrix were tested for cleaning performance. The cleaning effectiveness of each cleaner composition was tested follows: • 1. Soiled aluminum panels, 1″×4″, were used as the test specimens. […] Mineral oil and corn oil, each modified by the addition of 10% graphite, were used as the soils for each screening. Soil patches on the aluminum were deposited immediately before testing.
(§2) The test specimens were cleaned by low-impingement, continuously circulated aqueous working baths to determine chemical cleaning strength. The test also screened for foaminess. The continuous circulation promoted foam formation. Cleaning effectiveness was evaluated gravimetrically and the percentage of oily contaminant removed by the formulation was calculated by comparing soil weights before and after cleaning. This technique is a common procedure in analytic chemistry and will be familiar to those of skill in the art. The results of these experiments are summarized in Tables 1 and 3 as percent reduction of soil.

[2] = Cleaning test on soiled aluminum panels, mineral oil soil; settings: 0.05% alone in water, no matrix, 120° F., 90 seconds
Procedure: as §1, §2

| Compound | % reduction of soil, Corn Oil, single panel [1] | % reduction of soil, Min Oil, single panel [2] |
| --- | --- | --- |
| OCCOCCOCc1ccccc1 [Surfactant #7, benzyl alcohol ethoxylate, C6H5CH2—O—(CH2—CH2—O)n—H, n=2] | 92.2% and 92.0% and 91.6% | 98.9% and 100.0% (2×) |
| tri(propylene glycol) propyl ether | 90.0% and 88.9% and 95.0% | 93.9% and 100.0% (2×) |
